Counter-ions that a name gives are not always drawn.
Legend:
[1] = test system: erythroid progenitor cells (EPCs); assay: Fetal hemoglobin (HbF) ELISA in day 7 erythroid progenitor cells; assay type: cell-based, human; settings: Homo sapiens, Erythroid progenitor cell, HbF ELISA, day 7 EPCs, 5 days; read-out: EPC ELISA (pEC50 category) (converted);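 also: for fetal hemoglobin induction normalized to vehicle-treated cells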
Method in brief: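 CD34+-derived EPCs, 1,000 cells/well, rhEPO 3 U/mL; Compound A 22-pt series, […]; 5 d, 37° C, 5% CO2. Freeze-thaw lysis, anti-HbF capture + HRP anti-HbF, TMB, OD450. Normalized to DMSO wells.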

DNMT1 = DNMT1 (Homo sapiens, UniProt P26358); assay: DNMT1 biochemical activity, breaklight assay and/or SPA assay; settings: binned activity in either the breaklight or the SPA assay
DNMT1, sequence (P26358 whole entry, looked up): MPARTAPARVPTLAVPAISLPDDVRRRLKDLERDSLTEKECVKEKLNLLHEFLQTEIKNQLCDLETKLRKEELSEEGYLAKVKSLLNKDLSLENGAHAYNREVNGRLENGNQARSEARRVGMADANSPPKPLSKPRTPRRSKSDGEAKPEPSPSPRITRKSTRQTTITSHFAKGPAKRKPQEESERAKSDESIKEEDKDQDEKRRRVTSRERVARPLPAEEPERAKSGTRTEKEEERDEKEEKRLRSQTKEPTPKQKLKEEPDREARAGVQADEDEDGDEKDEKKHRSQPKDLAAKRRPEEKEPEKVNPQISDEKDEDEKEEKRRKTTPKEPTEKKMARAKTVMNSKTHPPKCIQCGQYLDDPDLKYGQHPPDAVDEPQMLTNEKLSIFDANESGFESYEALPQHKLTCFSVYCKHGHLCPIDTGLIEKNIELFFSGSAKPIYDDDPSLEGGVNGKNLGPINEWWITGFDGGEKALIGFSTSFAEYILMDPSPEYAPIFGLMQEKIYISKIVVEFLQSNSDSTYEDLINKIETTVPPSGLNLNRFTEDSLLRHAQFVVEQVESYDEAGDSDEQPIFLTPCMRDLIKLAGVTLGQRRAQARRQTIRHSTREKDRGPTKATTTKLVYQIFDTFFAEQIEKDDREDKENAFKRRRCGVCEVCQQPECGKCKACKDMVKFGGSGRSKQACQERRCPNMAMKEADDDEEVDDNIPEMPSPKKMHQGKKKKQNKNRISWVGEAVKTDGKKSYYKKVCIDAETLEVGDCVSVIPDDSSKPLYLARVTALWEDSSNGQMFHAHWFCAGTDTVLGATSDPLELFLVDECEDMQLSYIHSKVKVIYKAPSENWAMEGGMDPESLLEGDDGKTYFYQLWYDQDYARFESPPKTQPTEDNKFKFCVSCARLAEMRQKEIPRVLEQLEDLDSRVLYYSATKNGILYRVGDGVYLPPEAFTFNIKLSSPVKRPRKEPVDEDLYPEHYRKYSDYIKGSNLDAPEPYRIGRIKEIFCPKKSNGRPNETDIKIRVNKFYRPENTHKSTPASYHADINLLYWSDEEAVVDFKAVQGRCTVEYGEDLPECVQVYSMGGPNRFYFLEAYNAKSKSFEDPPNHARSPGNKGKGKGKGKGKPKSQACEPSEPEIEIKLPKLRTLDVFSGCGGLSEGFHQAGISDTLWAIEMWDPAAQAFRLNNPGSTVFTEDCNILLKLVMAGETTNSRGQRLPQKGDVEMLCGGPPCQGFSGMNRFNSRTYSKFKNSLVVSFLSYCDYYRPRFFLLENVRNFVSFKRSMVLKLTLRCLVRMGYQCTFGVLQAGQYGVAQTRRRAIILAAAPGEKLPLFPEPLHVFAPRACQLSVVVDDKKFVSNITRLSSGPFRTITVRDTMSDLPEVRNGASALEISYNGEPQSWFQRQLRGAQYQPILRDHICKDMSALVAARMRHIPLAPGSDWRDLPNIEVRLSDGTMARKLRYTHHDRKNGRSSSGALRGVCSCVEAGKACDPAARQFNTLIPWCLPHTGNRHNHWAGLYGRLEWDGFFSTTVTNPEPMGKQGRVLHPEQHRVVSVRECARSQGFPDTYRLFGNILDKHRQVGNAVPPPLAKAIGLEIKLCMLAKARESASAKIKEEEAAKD

| EC50 [1] [µM] | IC50 (DNMT1; read-out: DNMT1 BioChemical (pIC50 category) (converted)) [µM] | DNMT1 BioChemical (pIC50 category) (DNMT1) | SMILES |
| --- | --- | --- | --- |
| 1 to 31.6 |  | D (Category D: ≥6.5) | CN(CC(=O)NC(CO)CO)c1nc(SC(C(N)=O)c2ccccc2)c(C#N)c(C2CC2)c1C#N (stereo not shown) [Example 639, 2-((6-((2-amino-2-oxo-1-phenylethyl)thio)-3,5-dicyano-4-cyclopropylpyridin-2-yl)(methyl)amino)-N-(1,3-dihydroxypropan-2-yl)acetamide] |
| < 0.316 |  | D (Category D: ≥6.5) | CCc1c(C#N)c(SC(C(N)=O)c2ccccc2)nc(N2CCC[C@H](NC3COC3)C2)c1C#N (stereo partly drawn) [Example 640, 2-((3,5-dicyano-4-ethyl-6-((S)-3-(oxetan-3-ylamino)piperidin-1-yl)pyridin-2-yl)thio)-2-phenylacetamide] |
| 1 to 31.6 |  | D (Category D: ≥6.5) | CN(CC(=O)N(CCO)CCO)c1nc(SC(C(N)=O)c2ccccc2)c(C#N)c(C2CC2)c1C#N (stereo not shown) [Example 641, 2-((6-((2-amino-2-oxo-1-phenylethyl)thio)-3,5-dicyano-4-cyclopropylpyridin-2-yl)(methyl)amino)-N,N-bis(2-hydroxyethyl)acetamide] |
| < 0.316 |  | D (Category D: ≥6.5) | CCc1c(C#N)c(SC(C(N)=O)c2ccccc2)nc(N2CCC(C)(NCCO)CC2)c1C#N (stereo not shown) [Example 643, 2-((3,5-dicyano-4-ethyl-6-(4-((2-hydroxyethyl)amino)-4-methylpiperidin-1-yl)pyridin-2-yl)thio)-2-phenylacetamide] |
| 1 to 31.6 |  | D (Category D: ≥6.5) | CCc1c(C#N)c(SC(C(N)=O)c2ccccc2)nc(N(C)CCONC(=N)N)c1C#N (stereo not shown) [Example 644, 2-((3,5-dicyano-4-ethyl-6-((2-(guanidinooxy)ethyl)(methyl)amino)pyridin-2-yl)thio)-2-phenylacetamide] |
| < 0.316 |  | D (Category D: ≥6.5) | CCc1c(C#N)c(SC(C(N)=O)c2ccccc2)nc(N(C)CC(=O)N2CCO[C@H](CO)C2)c1C#N (stereo partly drawn) [Example 646, 2-((3,5-dicyano-4-ethyl-6-((2-((S)-2-(hydroxymethyl)morpholino)-2-oxoethyl)(methyl)amino)pyridin-2-yl)thio)-2-phenylacetamide] |
| 0.316 to 1 |  | D (Category D: ≥6.5) | CCc1c(C#N)c(SC(C(N)=O)c2ccccc2)nc(N(C)CC(=O)N2C[C@@H](O)[C@@H](O)C2)c1C#N (stereo partly drawn) [Example 647, 2-((3,5-dicyano-6-((2-((cis)-3,4-dihydroxypyrrolidin-1-yl)-2-oxoethyl)(methyl)amino)-4-ethylpyridin-2-yl)thio)-2-phenylacetamide] |

Second part, the compound before the results:

| SMILES | EC50 [1] [µM] | IC50 (DNMT1; read-out: DNMT1 BioChemical (pIC50 category) (converted)) [µM] | DNMT1 BioChemical (pIC50 category) (DNMT1) |
| --- | --- | --- | --- |
| CCc1c(C#N)c(SC(C(N)=O)c2ccccc2)nc(N(C)CCNC(=O)C(C)(C)N)c1C#N (stereo not shown) [Example 627, 2-amino-N-(2-((6-((2-amino-2-oxo-1-phenylethyl)thio)-3,5-dicyano-4-ethylpyridin-2-yl)(methyl)amino)ethyl)-2-methylpropanamide] | < 0.316 | < 0.316 |  |
| CCc1c(C#N)c(SC(C(N)=O)c2ccccc2)nc(N(C)CCOCCN)c1C#N (stereo not shown) [Example 628, 2-((6-((2-(2-aminoethoxy)ethyl)(methyl)amino)-3,5-dicyano-4-ethylpyridin-2-yl)thio)-2-phenylacetamide] | < 0.316 |  | D (Category D: ≥6.5) |
| CCc1c(C#N)c(SC(C(N)=O)c2ccccc2)nc(N2CCC(NC(=O)CCCN)CC2)c1C#N (stereo not shown) [Example 629, 4-amino-N-(1-(6-((2-amino-2-oxo-1-phenylethyl)thio)-3,5-dicyano-4-ethylpyridin-2-yl)piperidin-4-yl)butanamide formate] | 1 to 31.6 |  | D (Category D: ≥6.5) |
| CCc1c(C#N)c(SC(C(N)=O)c2ccccc2)nc(N(C)CC(=O)NCCN)c1C#N (stereo not shown) [Example 630, 2-((6-((2-amino-2-oxo-1-phenylethyl)thio)-3,5-dicyano-4-ethylpyridin-2-yl)(methyl)amino)-N-(2-aminoethyl)acetamide hydrochloride] | < 0.316 |  | D (Category D: ≥6.5) |
| CCc1c(C#N)c(SC(C(N)=O)c2ccccc2)nc(N(C)CC(=O)N2CCC2)c1C#N (stereo not shown) [Example 631, 2-((6-((2-(azetidin-1-yl)-2-oxoethyl)(methyl)amino)-3,5-dicyano-4-ethylpyridin-2-yl)thio)-2-phenylacetamide] | < 0.316 |  | D (Category D: ≥6.5) |
| CCc1c(C#N)c(SC(C(N)=O)c2ccccc2)nc(N2CC[C@@](F)(CN)C2)c1C#N (stereo partly drawn) [Example 632, 2-((6-((R)-3-(aminomethyl)-3-fluoropyrrolidin-1-yl)-3,5-dicyano-4-ethylpyridin-2-yl)thio)-2-phenylacetamide] | 1 to 31.6 |  | D (Category D: ≥6.5) |
| CCc1c(C#N)c(SC(C(N)=O)c2ccccc2)nc(N(C)CC(=O)N2CC(O)C2)c1C#N (stereo not shown) [Example 633, 2-((3,5-dicyano-4-ethyl-6-((2-(3-hydroxyazetidin-1-yl)-2-oxoethyl)(methyl)amino)pyridin-2-yl)thio)-2-phenylacetamide] | < 0.316 |  | D (Category D: ≥6.5) |
| CCc1c(C#N)c(SC(C(N)=O)c2ccccc2)nc(N2CCC(ONC(=N)N)CC2)c1C#N (stereo not shown) [Example 634, 2-((3,5-dicyano-4-ethyl-6-(4-(guanidinooxy)piperidin-1-yl)pyridin-2-yl)thio)-2-phenylacetamide] | 1 to 31.6 |  | D (Category D: ≥6.5) |
| CCc1c(C#N)c(SC(C(N)=O)c2ccccc2)nc(N2CCC[C@@H](NC)C2)c1C#N (stereo partly drawn) [Example 636, 2-((3,5-dicyano-4-ethyl-6-((R)-3-(methylamino)piperidin-1-yl)pyridin-2-yl)thio)-2-phenylacetamide] | < 0.316 |  | D (Category D: ≥6.5) |
| CCc1c(C#N)c(SC(C(N)=O)c2ccccc2)nc(N(C)CC(=O)N2C[C@@H](CO)[C@@H](O)C2)c1C#N (stereo partly drawn) [Example 637, 2-((3,5-dicyano-4-ethyl-6-((2-((3R,4S)-3-hydroxy-4-(hydroxymethyl)pyrrolidin-1-yl)-2-oxoethyl)(methyl)amino)pyridin-2-yl)thio)-2-phenylacetamide] | 1 to 31.6 |  | D (Category D: ≥6.5) |
| CCc1c(C#N)c(S[C@@H](C(N)=O)c2ccccc2)nc(N2CC[C@](F)(CN)C2)c1C#N [Example 638, (R)-2-((6-((S)-3-(aminomethyl)-3-fluoropyrrolidin-1-yl)-3,5-dicyano-4-ethylpyridin-2-yl)thio)-2-phenylacetamide] | 0.316 to 1 |  | D (Category D: ≥6.5) |
| N#Cc1c(SC(C(N)=O)c2ccccc2)nc(N2CCC(NC(=O)CN)CC2)c(C#N)c1C1CC1 (stereo not shown) [Example 642, 2-amino-N-(1-(6-((2-amino-2-oxo-1-phenylethyl)thio)-3,5-dicyano-4-cyclopropylpyridin-2-yl)piperidin-4-yl)acetamide formate] | 1 to 31.6 |  | D (Category D: ≥6.5) |
| CCc1c(C#N)c(SC(C(N)=O)c2ccccc2)nc(N2CCC(NCCN)CC2)c1C#N (stereo not shown) [Example 645, 2-((6-(4-((2-aminoethyl)amino)piperidin-1-yl)-3,5-dicyano-4-ethylpyridin-2-yl)thio)-2-phenylacetamide dihydrochloride] | 0.316 to 1 |  | D (Category D: ≥6.5) |

Source: patent US10975056B2 (GlaxoSmithKline Intellectual Property Development Limited, priority 2016, dated 2021)
